Data reported in ChEMBL document CHEMBL1201862, “PubChem BioAssay data set” (2004).
Counter-ions that a name gives are not always drawn.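 Protocol summary: plate cells (96-well), add compound at 5 concentrations, incubate 48 h, interpolate endpoints linearly. GI50 is the concentration that inhibits growth by half.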 Calls of active or inactive are those of the source. Rule as the data show it: active = GI50 up to about 1.1 µM and inactive = higher.

Key:
Assay in all cases: NCI tumour cell line growth inhibition, 48 h
SF-539 = tested on: SF-539
HOP-92 = tested on: HOP-92
K562 = tested on: K562
Hs-578T = tested on: Hs-578T
PC-3 = tested on: PC-3
MDA-N = tested on: MDA-N
NCI/ADR-RES = tested on: NCI/ADR-RES
OVCAR-3 = tested on: OVCAR-3
NCI-H522 = tested on: NCI-H522
LOX IMVI = tested on: LOX IMVI
Malme-3M = tested on: Malme-3M
SNB-19 = tested on: SNB-19
RPMI-8226 = tested on: RPMI-8226
UACC-257 = tested on: UACC-257
SK-OV-3 = tested on: SK-OV-3
HOP-62 = tested on: HOP-62
OVCAR-8 = tested on: OVCAR-8
U-251 = tested on: U-251
BT-549 = tested on: BT-549

SMILES	GI50 (SF-539)	GI50 (HOP-92)	GI50 (K562)	GI50 (Hs-578T)	GI50 (PC-3)	GI50 (MDA-N)	GI50 (NCI/ADR-RES)	GI50 (OVCAR-3)	GI50 (NCI-H522)	GI50 (LOX IMVI)	GI50 (Malme-3M)	GI50 (SNB-19)	GI50 (RPMI-8226)	GI50 (UACC-257)	GI50 (SK-OV-3)	GI50 (HOP-62)	GI50 (OVCAR-8)	GI50 (U-251)	GI50 (BT-549)
CC1OCC2OC(C)OC(C3C4=C(CC(C)(C)CC4=O)OC4=C3C(=O)CC(C)(C)C4)C2O1 (stereo not given)	> 100 µM (inactive)	> 100 µM (inactive)	> 100 µM (inactive)	> 100 µM (inactive)	> 100 µM (inactive)	> 100 µM (inactive)	> 100 µM (inactive)	> 100 µM (inactive)	> 100 µM (inactive)	> 100 µM (inactive)	> 100 µM (inactive)	> 100 µM (inactive)	> 100 µM (inactive)	> 100 µM (inactive)	> 100 µM (inactive)	> 100 µM (inactive)	> 100 µM (inactive)	–	–
Cc1ccccc1C1=[N+]([O-])c2ccc(Cl)cc2C1=O	17.7 µM (inactive)	14.8 µM (inactive)	6.12 µM (inactive)	–	–	–	–	2.6 µM (inactive)	11.5 µM (inactive)	7.78 µM (inactive)	16.9 µM (inactive)	28.1 µM (inactive)	3.31 µM (inactive)	13.1 µM (inactive)	26.4 µM (inactive)	20 µM (inactive)	7.14 µM (inactive)	17.7 µM (inactive)	–
C=C1c2nc3ccccc3n2C=C(c2ccccc2)N1c1ccccc1	43.6 µM (inactive)	50.4 µM (inactive)	34.5 µM (inactive)	–	34.3 µM (inactive)	39.8 µM (inactive)	34 µM (inactive)	> 100 µM (inactive)	15.8 µM (inactive)	42.2 µM (inactive)	> 100 µM (inactive)	40.4 µM (inactive)	17.3 µM (inactive)	74.1 µM (inactive)	> 100 µM (inactive)	–	37.8 µM (inactive)	58.6 µM (inactive)	24.5 µM (inactive)
CCOc1ccc(N/C(=C(/C(Cl)=C(/Cl)Nc2ccccc2)[N+](=O)[O-])n2nnc3ccccc32)cc1	–	16 µM (inactive)	28.8 µM (inactive)	–	23.2 µM (inactive)	19.8 µM (inactive)	20 µM (inactive)	24.1 µM (inactive)	14 µM (inactive)	–	21.9 µM (inactive)	30.1 µM (inactive)	50.7 µM (inactive)	34.6 µM (inactive)	40 µM (inactive)	24.5 µM (inactive)	–	18.2 µM (inactive)	13.3 µM (inactive)
Cc1ccc(S(=O)(=O)CNC(=S)CCCC(=S)NCS(=O)(=O)c2ccc(C)cc2)cc1	> 100 µM (inactive)	20.2 µM (inactive)	53.6 µM (inactive)	–	–	–	–	48.9 µM (inactive)	41.4 µM (inactive)	18.6 µM (inactive)	50.7 µM (inactive)	> 100 µM (inactive)	21.4 µM (inactive)	> 100 µM (inactive)	> 100 µM (inactive)	> 100 µM (inactive)	> 100 µM (inactive)	59 µM (inactive)	–
CCCCOC(C)(C)/C=C/C(O)[C@](C)(O)[C@H]1[C@H](O)C[C@@]2(C)[C@@H]3CCc4c(cc(OC5OC(CO)C(O)C(O)C5O)c(O)c4C)C3(C)C(=O)C[C@]12C (stereo not given in full)	> 100 µM (inactive)	> 100 µM (inactive)	> 100 µM (inactive)	–	> 100 µM (inactive)	> 100 µM (inactive)	> 100 µM (inactive)	> 100 µM (inactive)	> 100 µM (inactive)	> 100 µM (inactive)	> 100 µM (inactive)	> 100 µM (inactive)	–	> 100 µM (inactive)	> 100 µM (inactive)	> 100 µM (inactive)	> 100 µM (inactive)	> 100 µM (inactive)	> 100 µM (inactive)
O=c1cc(-c2ccccc2F)[nH]c2ccc(N3CCCC3)cc12	< 0.001 µM (active)	–	0.0257 µM (active)	0.0201 µM (active)	< 0.001 µM (active)	0.0135 µM (active)	0.0352 µM (active)	–	0.0326 µM (active)	0.0398 µM (active)	> 100 µM (inactive)	0.0214 µM (active)	0.0468 µM (active)	0.1 µM (active)	> 100 µM (inactive)	0.34 µM (active)	0.0624 µM (active)	0.0381 µM (active)	–
CC1(C)CCC2=C(O1)c1ccccc1C(=O)C2=O [LAPACHONE]	0.463 µM (active)	3.15 µM (inactive)	0.245 µM (active)	–	0.847 µM (active)	0.2 µM (active)	–	0.234 µM (active)	0.605 µM (active)	–	0.427 µM (active)	–	0.284 µM (active)	0.0938 µM (active)	1.85 µM (inactive)	0.647 µM (active)	0.398 µM (active)	0.337 µM (active)	0.721 µM (active)
CC(CN1c2ccccc2Sc2ccccc21)N(C)C (stereo not given) [PROMETHAZINE HYDROCHLORIDE]	19.1 µM (inactive)	17.1 µM (inactive)	17.3 µM (inactive)	–	15.8 µM (inactive)	–	15.8 µM (inactive)	16.5 µM (inactive)	19.8 µM (inactive)	18.9 µM (inactive)	18.9 µM (inactive)	17.4 µM (inactive)	–	23.9 µM (inactive)	18.3 µM (inactive)	15.2 µM (inactive)	16.2 µM (inactive)	14.2 µM (inactive)	–
